The source of these data is PMC4457528, “Identification of Novel Small Molecule Inhibitors of Oncogenic RET Kinase” (PLoS ONE, 2015).

One test relates to RAT RET/C634R cells. Type of test: cell-based. As to conditions: low serum, last day values, 95% CI in brackets, read-out: Growth inhibition IC50 dose: RAT RET/C634R. On the procedure:
(§1) To compare cell growth, we performed unpaired Student’s t test using the Instat software program (Graphpad Software Inc). P values were two-sided, and differences were considered statistically significant at P <.02. IC50 doses were calculated through a curve fitting analysis from last day values using the PRISM software program (Graphpad Software Inc).

Test [1] has as its system SHC and MAPK phosphorylation in parental RAT1 cells. Put plainly: Western blot of SHC and MAPK phosphorylation in parental RAT1 cells. Type of test: cell-based, rat. Particulars: 2 hr. On the procedure:
Protein lysates were prepared according to standard procedures. Briefly, cells were lysed in a buffer containing 50 mM N-2-hydroxyethylpiperazine-N'-2-ethanesulfonic acid (HEPES; pH 7.5), 1% (vol/vol) Triton X-100, 150 mM NaCl, 5 mM EGTA, 50 mM NaF, 20 mM sodium pyrophosphate, 1 mM sodium vanadate, 2 mM phenylmethylsulphonyl fluoride (PMSF) and 1 μg/ml aprotinin. Lysates were clarified by centrifugation at 10,000 Xg for 15 min. […] Immune complexes were detected with the enhanced chemiluminescence kit (Amersham Pharmacia Biotech, Little Chalfort, UK). Signal intensity was analyzed at the Phosphorimager (Typhoon 8600, Amersham Pharmacia Biotech) interfaced with the ImageQuant software. Anti-phospho-SHC (#07206), that recognizes SHC proteins when phosphorylated on Y317 was from Merck Millipore (Darmstadt, Germany). Anti-MAPK (#4695) and anti-phospho-MAPK (#4370), specific for p44/42MAPK (ERK1/2) phosphorylated on Thr202/Tyr204, anti-VEGFRII (#2479) and anti-phospho-VEGFRII (#2478), that recognizes VEGF Receptor 2 when phosphorylated on Y1175, were from Cell Signaling (Beverly, MA).
Anti-SHC (#H-108) was from Santa Cruz Biotechnology (Santa Cruz, CA). Anti-RET is a polyclonal antibody raised against the tyrosine kinase protein fragment of human RET [28]. Anti-phospho905 is a phospho-specific polyclonal antibody recognizing RET proteins phosphorylated at Y905 and anti-phospho1062 is a phospho-specific polyclonal antibody recognizing RET proteins phosphorylated at Y1062 [13]. Secondary antibodies coupled to horseradish peroxidase were from Santa Cruz Biotechnology.
EC: extracellular domain; IC: intracellular domain; TM: transmembrane domain.

In another test the target is RET/M918T (Homo sapiens, UniProt P07949, M918T). As to the kind of experiment: cell-based. Particulars: NIH3T3, read-out: inhibition of RET/M918T protein.
Chain of RET/M918T (P07949 29-1072 isoform P07949-2 M918T limits assumed): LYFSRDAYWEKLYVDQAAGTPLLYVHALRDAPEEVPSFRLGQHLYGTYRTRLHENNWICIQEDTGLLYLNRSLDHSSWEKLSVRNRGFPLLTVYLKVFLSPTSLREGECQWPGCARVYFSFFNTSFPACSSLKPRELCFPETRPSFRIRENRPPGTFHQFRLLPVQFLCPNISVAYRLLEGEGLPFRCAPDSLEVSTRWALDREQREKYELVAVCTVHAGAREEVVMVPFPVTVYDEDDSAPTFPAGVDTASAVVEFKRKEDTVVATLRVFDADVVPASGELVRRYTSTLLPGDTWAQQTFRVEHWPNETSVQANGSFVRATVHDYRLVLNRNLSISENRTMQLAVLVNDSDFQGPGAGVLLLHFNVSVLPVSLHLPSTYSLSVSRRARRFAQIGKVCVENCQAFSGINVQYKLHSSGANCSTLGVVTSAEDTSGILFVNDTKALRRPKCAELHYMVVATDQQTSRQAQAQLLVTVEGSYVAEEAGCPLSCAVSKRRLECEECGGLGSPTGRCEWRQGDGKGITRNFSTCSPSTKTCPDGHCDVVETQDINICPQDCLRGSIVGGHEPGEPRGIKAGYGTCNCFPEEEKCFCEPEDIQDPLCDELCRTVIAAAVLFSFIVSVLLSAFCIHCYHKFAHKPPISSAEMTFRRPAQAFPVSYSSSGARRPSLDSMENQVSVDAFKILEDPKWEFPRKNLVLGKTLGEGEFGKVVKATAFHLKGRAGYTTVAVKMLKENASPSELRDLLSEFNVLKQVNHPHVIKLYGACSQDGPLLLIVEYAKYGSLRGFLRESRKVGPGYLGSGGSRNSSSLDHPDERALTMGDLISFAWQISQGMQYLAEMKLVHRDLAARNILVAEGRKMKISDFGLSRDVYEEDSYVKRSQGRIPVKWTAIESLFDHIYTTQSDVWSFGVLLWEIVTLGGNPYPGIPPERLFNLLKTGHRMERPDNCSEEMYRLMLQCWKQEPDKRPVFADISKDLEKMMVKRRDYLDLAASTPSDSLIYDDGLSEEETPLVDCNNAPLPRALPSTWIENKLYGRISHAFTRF
The subject of the next test is MZ-CRC-1 cells. Put plainly: Growth curves, MZ-CRC-1 medullary thyroid carcinoma cells (RET/M918T). Type of test: cell-based. Particulars: Homo sapiens, 10% serum, 95% CI in brackets, read-out: Growth inhibition IC50 dose MZ-CRC-1. The procedure:
TT human cell line was obtained in 2002 from ATCC and authenticated by RET genotyping; it was derived from a MTC and harbors a cysteine 634 to tryptophan (C634W) RET mutation. TT cells were grown in RPMI 1640 supplemented with 20% fetal calf serum (GIBCO). MZ-CRC-1 human cells were kindly provided in 2009 by Robert F. Gagel (MD Anderson, Houston, TX) and authenticated by RET genotyping. […] Nthy-ori 3–1, a human thyroid follicular epithelial cell line immortalized by the SV40 large T gene, was obtained from European Collection of Cell Cultures (ECACC) (Wiltshire, UK) in 2010.
as §1

For test [2], the target named is T1, KinomeScan kinase panel (Homo sapiens, UniProt Q96Q40).
T1 construct: purchased DiscoveRx (KinomeScan)
T1 sequence (Q96Q40 whole entry): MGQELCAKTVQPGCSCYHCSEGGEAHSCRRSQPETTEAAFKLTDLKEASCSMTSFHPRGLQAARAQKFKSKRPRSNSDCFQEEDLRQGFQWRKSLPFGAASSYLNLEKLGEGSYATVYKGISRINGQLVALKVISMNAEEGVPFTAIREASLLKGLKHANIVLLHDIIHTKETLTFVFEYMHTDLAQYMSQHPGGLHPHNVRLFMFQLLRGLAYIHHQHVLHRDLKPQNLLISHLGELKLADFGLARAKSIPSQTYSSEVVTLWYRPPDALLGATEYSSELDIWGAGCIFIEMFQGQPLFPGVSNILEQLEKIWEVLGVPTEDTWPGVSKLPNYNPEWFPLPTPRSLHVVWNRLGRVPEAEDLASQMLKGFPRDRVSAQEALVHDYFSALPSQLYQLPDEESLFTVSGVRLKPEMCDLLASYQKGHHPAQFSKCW
Put plainly: KinomeScan kinase panel, single concentration 10 µM. Particulars: PFTAIRE2, 10 µM; read-out: score (%). Type of test: binding.

The target of test [3] is T2, KinomeScan kinase panel (Homo sapiens, UniProt Q9UEE5).
T2 construct: purchased DiscoveRx (KinomeScan)
T2 sequence (Q9UEE5 1-414): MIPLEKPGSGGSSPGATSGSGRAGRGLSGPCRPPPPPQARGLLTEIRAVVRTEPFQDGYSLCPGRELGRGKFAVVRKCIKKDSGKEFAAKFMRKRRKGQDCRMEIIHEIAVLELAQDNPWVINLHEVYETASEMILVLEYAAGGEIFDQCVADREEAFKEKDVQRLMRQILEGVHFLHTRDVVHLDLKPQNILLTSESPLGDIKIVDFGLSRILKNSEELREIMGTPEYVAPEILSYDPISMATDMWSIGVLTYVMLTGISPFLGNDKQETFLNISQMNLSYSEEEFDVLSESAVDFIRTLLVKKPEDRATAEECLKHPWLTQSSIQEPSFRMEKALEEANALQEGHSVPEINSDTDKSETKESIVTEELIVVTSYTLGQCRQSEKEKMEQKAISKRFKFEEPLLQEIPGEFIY
The test is described as above. Type of test: binding. Particulars: DRAK1, 10 µM; read-out: score (%).

Test [4] addresses T3, KinomeScan kinase panel (Homo sapiens, UniProt Q6P3R8).
T3 construct: purchased DiscoveRx (KinomeScan)
T3 sequence (Q6P3R8 1-708): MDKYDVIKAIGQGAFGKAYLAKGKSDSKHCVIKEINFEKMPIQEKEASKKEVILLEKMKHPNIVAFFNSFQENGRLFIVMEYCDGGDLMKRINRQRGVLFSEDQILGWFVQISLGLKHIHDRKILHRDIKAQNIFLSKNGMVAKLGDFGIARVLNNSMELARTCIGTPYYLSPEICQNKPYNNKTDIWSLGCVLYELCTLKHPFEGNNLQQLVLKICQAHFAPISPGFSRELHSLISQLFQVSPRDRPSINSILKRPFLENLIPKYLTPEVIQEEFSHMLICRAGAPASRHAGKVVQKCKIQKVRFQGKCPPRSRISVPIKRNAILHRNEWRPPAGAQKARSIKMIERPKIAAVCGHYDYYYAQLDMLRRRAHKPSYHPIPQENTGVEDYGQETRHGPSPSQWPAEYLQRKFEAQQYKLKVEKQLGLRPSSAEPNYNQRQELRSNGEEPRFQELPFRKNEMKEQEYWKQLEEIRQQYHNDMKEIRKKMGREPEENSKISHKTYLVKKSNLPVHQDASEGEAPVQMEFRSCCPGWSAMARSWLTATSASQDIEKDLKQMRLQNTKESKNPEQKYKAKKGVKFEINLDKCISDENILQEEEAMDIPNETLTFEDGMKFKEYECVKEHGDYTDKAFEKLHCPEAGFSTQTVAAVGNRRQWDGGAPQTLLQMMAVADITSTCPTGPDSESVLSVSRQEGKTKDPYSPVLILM
The test is described as above. Type of test: binding. Particulars: NEK5, 10 µM; read-out: score (%).

Test [5] concerns the target T4, KinomeScan kinase panel (Homo sapiens, UniProt Q86UX6).
T4 construct: purchased DiscoveRx (KinomeScan)
Described as above. As to conditions: kinase YANK3; 10 µM; read-out: score (%). Type of test: binding.

Where only a bound is given, the exact number is not on record here.

T4 sequence (Q86UX6 whole entry): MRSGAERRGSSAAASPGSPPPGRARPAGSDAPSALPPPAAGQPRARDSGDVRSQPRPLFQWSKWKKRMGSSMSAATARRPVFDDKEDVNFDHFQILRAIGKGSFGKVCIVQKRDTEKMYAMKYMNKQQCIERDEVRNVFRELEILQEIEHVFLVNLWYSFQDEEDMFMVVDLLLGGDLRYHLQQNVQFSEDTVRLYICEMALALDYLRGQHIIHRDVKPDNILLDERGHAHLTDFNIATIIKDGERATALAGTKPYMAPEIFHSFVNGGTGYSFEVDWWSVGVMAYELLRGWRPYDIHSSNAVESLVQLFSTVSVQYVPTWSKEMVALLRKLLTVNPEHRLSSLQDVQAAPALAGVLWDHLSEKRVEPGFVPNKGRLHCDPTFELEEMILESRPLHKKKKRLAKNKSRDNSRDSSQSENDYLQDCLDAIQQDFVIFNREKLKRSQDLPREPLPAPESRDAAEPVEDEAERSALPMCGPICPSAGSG

With `CCN1CCN(Cc2ccc(NC(=O)c3ccc(C)c(NC(=O)c4cncc(-c5cccs5)c4)c3)cc2C(F)(F)F)CC1` [ALW-II-41-27], the IC50 in the test on RAT RET/C634R cells is 44 nM; in the test with MZ-CRC-1 cells, 2 nM. For the same molecule, the “effect on SHC and MAPK phosphorylation in parental RAT1 cells” value (shortened to “effect on SHC and MAPK phosphorylation”) in test [1] is listed as “did not affect”. Further, the inhibition at 0.01 µM on RET/M918T was more than 30%. For the same molecule, the remaining binding at 10 µM at KinomeScan kinase panel [2], at KinomeScan kinase panel [3], at KinomeScan kinase panel [4] and at KinomeScan kinase panel [5] was more than 30% in each case.

For the molecule `CCN1CCN(Cc2ccc(NC(=O)c3ccc(C)c(/C=C/c4cnc5[nH]ccc5c4Cl)c3)cc2C(F)(F)F)CC1` [HG-6-63-01, (E)-3-(2-(4-chloro-1H-pyrrolo[2,3-b]pyridin-5-yl)vinyl)-N-(4-((4-ethylpiperazin-1-yl)methyl)-3-(trifluoromethyl)phenyl)-4-methylbenzamide], the IC50 is 21 nM in the test with RAT RET/C634R cells and 1 nM in the test on MZ-CRC-1 cells. In addition, the “effect on SHC and MAPK phosphorylation” value in test [1] is recorded as “did not affect”. At RET/M918T, the inhibition at 0.01 µM was more than 30%. Also, the remaining binding at 10 µM at KinomeScan kinase panel [2] was more than 30%; at KinomeScan kinase panel [3], 0.35%; at KinomeScan kinase panel [4] it was 7%; at KinomeScan kinase panel [5], more than 30%.

As to `CCN1CCN(Cc2ccc(NC(=O)c3ccc(C)c(C#Cc4cccnc4)c3)cc2C(F)(F)F)CC1` [XMD15-44], the IC50 worked out at 11.5 nM in the test with RAT RET/C634R cells and 4.2 nM in the test with MZ-CRC-1 cells. For the same molecule, in test [1], the “effect on SHC and MAPK phosphorylation” value is on record as “did not affect”. Besides, the inhibition at 0.01 µM at RET/M918T is more than 30%. Further, the remaining binding at 10 µM on KinomeScan kinase panel [2] was 6.4%; on KinomeScan kinase panel [3], more than 30%; at KinomeScan kinase panel [4], 4.8%; on KinomeScan kinase panel [5], 75%.
